The target of the assay is T1, histone acetyltransferase p300 (Homo sapiens, UniProt Q09472).
T1 construct: purchased BPS Corporation 50071
T1 sequence (Q09472 1284-1673 limits assumed): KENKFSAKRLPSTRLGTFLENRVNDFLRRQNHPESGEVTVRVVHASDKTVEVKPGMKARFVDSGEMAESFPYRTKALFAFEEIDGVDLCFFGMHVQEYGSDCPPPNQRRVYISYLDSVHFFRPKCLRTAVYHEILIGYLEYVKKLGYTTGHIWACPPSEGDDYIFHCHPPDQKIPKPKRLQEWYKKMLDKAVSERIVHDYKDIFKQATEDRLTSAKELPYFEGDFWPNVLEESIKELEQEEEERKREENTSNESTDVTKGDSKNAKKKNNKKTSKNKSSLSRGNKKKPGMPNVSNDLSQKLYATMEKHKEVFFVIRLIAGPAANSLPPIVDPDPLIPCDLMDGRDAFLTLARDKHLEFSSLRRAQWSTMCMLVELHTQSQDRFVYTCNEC
The assay is described as follows: Histone acetyltransferase (p300) activity assay (radioisotope, [3H]-Ac-CoA). It counts as biochemical. To be noted: p300 0.05 nM; histone peptide 600 nM, [3H]-Ac-CoA 250 nM; 60 min at room temperature; read-out: Inhibition rate IC50. As to the method: The reaction was finally terminated with Ac-CoA (Sigma, Cat. No. A2056) without isotope labeling. If the activity of the acetyltransferase p300 was inhibited, the isotope signal cannot be detected on the substrate polypeptide. Therefore, the inhibitory activity of the compound against the acetyltransferase p300 was evaluated.
In the enzyme reaction system, 200 nL of a diluted compound (100% DMSO) was first transferred to a test plate using Echo, where the final concentration of the compound in the enzyme reaction system ranges from 0.25 to 5000 nM. Then 10 μL/well of p300 protein (final concentration of 0.05 nM) was transferred therein, and incubated with the compound for 15 min at room temperature. Then 10 μL/well of a substrate mixture (final concentrations of histone peptide and [^3H]—Ac-CoA were 600 nM and 250 nM, respectively) was added to start the enzyme-catalyzed reaction, and incubated at room temperature for 60 min. Then 10 µL/well of a 250 μM cold Ac-CoA solution was added to stop the reaction. Finally 25 μL/well of the reaction solution was transferred to a 384-well Flashplate (Perkin Elmer, Cat. No. SMP410A001PK), and incubated at room temperature for 1 h. The resultant was washed with double distilled water+0.1% Tween-20 three times. The signal value was read by using Microbeta. The data was analyzed by using GraphPad Prism 5.0 software to obtain IC50.

SMILES strings stand for the structures. Where only a bound is given, the exact number is not on record here.

Broadly, the IC50 is the midpoint of a concentration-inhibition curve. As to `CNC(=O)Nc1ccc2c(c1)CC[C@]21OC(=O)N(CC(=O)N2Cc3ccccc3CC[C@@H]2C2CC2)C1=O` [SYY-B017-1], the IC50 is 640 nM.
With `CNC(=O)Nc1ccc2c(c1)CC[C@@]21OC(=O)N(CC(=O)N2Cc3ccccc3CC[C@@H]2C2CC2)C1=O` [SYY-B017-2], the IC50 was 270 nM.
Next, `CNC(=O)Nc1ccc2c(c1)CC[C@]21OC(=O)N(CC(=O)N2Cc3ccccc3CC[C@@H]2C(C)C)C1=O` [SYY-B020-1]: 200 nM; `CNC(=O)Nc1ccc2c(c1)CC[C@@]21OC(=O)N(CC(=O)N2Cc3ccccc3CC[C@@H]2C(C)C)C1=O` [SYY-B020-2]: 45 nM.
The figure for `CNC(=O)Nc1ccc2c(c1)CC[C@]21OC(=O)N(CC(=O)N2Cc3ccc(F)cc3CC[C@@H]2C)C1=O` [SYY-B022-1] is 54 nM; for `CNC(=O)Nc1ccc2c(c1)CC[C@@]21OC(=O)N(CC(=O)N2Cc3ccc(F)cc3CC[C@@H]2C)C1=O` [SYY-B022-2] it is 12 nM; for `CCC[C@H]1CCc2ccccc2CN1C(=O)CN1C(=O)O[C@]2(CCc3cc(NC(=O)NC)ccc32)C1=O` [SYY-B024-1] it is 47 nM.
Next, `CNC(=O)Nc1ccc2c(c1)CC[C@]21OC(=O)N(CC(=O)N2Cc3ccc(F)cc3CC[C@@H]2C2CC2)C1=O` [SYY-B026-1]: 22 nM; `CNC(=O)Nc1ccc2c(c1)CC[C@]21OC(=O)N(CC(=O)N2Cc3ccccc3CC[C@@H]2C(F)(F)F)C1=O` [SYY-B028-1]: 1100 nM.
For the compound `CNC(=O)Nc1ccc2c(c1)CC[C@@]21OC(=O)N(CC(=O)N2Cc3ccccc3CC[C@@H]2C(F)(F)F)C1=O` [SYY-B028-2], the IC50 was determined as 55 nM.
The figure for `CNC(=O)Nc1ccc2c(c1)CC[C@]21OC(=O)N(CC(=O)N2Cc3cc(F)ccc3OC[C@@H]2C2CC2)C1=O` [SYY-B030-1] is 230 nM; for `CNC(=O)Nc1ccc2c(c1)CC[C@@]21OC(=O)N(CC(=O)N2Cc3cc(F)ccc3OC[C@@H]2C2CC2)C1=O` [SYY-B030-2] it is 230 nM; for `CNC(=O)Nc1ccc2c(c1)CC[C@@]21OC(=O)N(CC(=O)N2Cc3ccc(F)cc3CC[C@@H]2C(F)(F)F)C1=O` [SYY-B032-2] it is 37 nM.
Consider `CNC(=O)Nc1ccc2c(c1)CCC21NC(=O)N(CC(=O)N2Cc3ccc(F)cc3CC[C@@H]2C2CC2)C1=O` (stereo partly drawn) [SYY-B034], for which the IC50 was more than 100 nM.
For the compound `NC1(C(=O)Nc2ccc3c(c2)CC[C@]32OC(=O)N(CC(=O)N3Cc4ccc(F)cc4CC[C@@H]3C3CC3)C2=O)CC1` [SYY-B036-1], the IC50 amounted to 180 nM.
The figure for `NC1(C(=O)Nc2ccc3c(c2)CC[C@@]32OC(=O)N(CC(=O)N3Cc4ccc(F)cc4CC[C@@H]3C3CC3)C2=O)CC1` [SYY-B036-2] is 1500 nM; for `CC(C)(N)C(=O)Nc1ccc2c(c1)CC[C@]21OC(=O)N(CC(=O)N2Cc3ccc(F)cc3CC[C@@H]2C2CC2)C1=O` [SYY-B037-2] it is more than 100 nM.
The figure for `CC(C)(N)C(=O)Nc1ccc2c(c1)CC[C@@]21OC(=O)N(CC(=O)N2Cc3ccc(F)cc3CC[C@@H]2C2CC2)C1=O` [SYY-B038-2] is more than 100 nM.
In the case of `NC1(C(=O)Nc2ccc3c(c2)CC[C@]32OC(=O)N(CC(=O)N3Cc4ccc(F)cc4CC[C@@H]3C3CC3)C2=O)CCC1` [SYY-B040-1], the IC50 worked out at 130 nM.
Next, `NC1(C(=O)Nc2ccc3c(c2)CC[C@@]32OC(=O)N(CC(=O)N3Cc4ccc(F)cc4CC[C@@H]3C3CC3)C2=O)CCC1` [SYY-B040-2]: 160 nM; `Cn1cc(-c2ccc3c(c2)CCC32NC(=O)N(CC(=O)N3Cc4ccc(F)cc4CC[C@@H]3C3CC3)C2=O)cn1` (stereo partly drawn) [SYY-B044]: more than 50 nM; `CNC(=O)Cn1cc(-c2ccc3c(c2)CCC32NC(=O)N(CC(=O)N3Cc4ccc(F)cc4CC[C@@H]3C3CC3)C2=O)cn1` (stereo partly drawn) [SYY-B046]: more than 50 nM.
The figure for `CNC(=O)Nc1ccc2c(c1)CC[C@]21OC(=O)N(CC(=O)N2Cc3cc(F)ccc3OC[C@H]2C(F)(F)F)C1=O` [SYY-B057-1] is 8.9 nM.
With `CNC(=O)Nc1ccc2c(c1)CC[C@]21OC(=O)N(CC(=O)N2Cc3cccnc3CC[C@H]2C2CC2)C1=O` [SYY-B081-1], the half-inhibitory concentration (IC50) is less than 200 nM.
The figure for `CNC(=O)Nc1ccc2c(c1)CC[C@@]21OC(=O)N(CC(=O)N2Cc3cccnc3CC[C@H]2C2CC2)C1=O` [SYY-B081-2] is 6.8 nM; for `CNC(=O)Nc1ccc2c(c1)CCC21NC(=O)N(CC(=O)N2Cc3cc(F)c(F)cc3CC[C@H]2C2CC2)C1=O` (stereo partly drawn) [SYY-B088] it is less than 10 nM.
For the compound `CNC(=O)Nc1ccc2c(c1)CC[C@]21OC(=O)N(CC(=O)N2Cc3cc(F)c(F)cc3CC[C@H]2C2CC2)C1=O` [SYY-B090-1], the IC50 was 1.37 nM.
Next, `CNC(=O)Nc1ccc2c(c1)CC[C@@]21OC(=O)N(CC(=O)N2Cc3cc(F)c(F)cc3CC[C@H]2C2CC2)C1=O` [SYY-B090-2]: 1.58 nM; `Cn1cc(-c2ccc3c(c2)CCCC32OC(=O)N(CC(=O)N3Cc4cc(F)ccc4OC[C@H]3C3CC3)C2=O)cn1` (stereo partly drawn) [SYY-B094]: less than 100 nM.
For the compound `CNC(=O)Nc1ccc2c(c1)CC[C@]21OC(=O)N(CC(=O)N2Cc3ncccc3CC[C@H]2C2CC2)C1=O` [SYY-B095-1], the 50% inhibitory concentration (IC50) came out at 11.7 nM.
The figure for `CNC(=O)Nc1ccc2c(c1)CC[C@@]21OC(=O)N(CC(=O)N2Cc3ncccc3CC[C@H]2C2CC2)C1=O` [SYY-B096-2] is 7.4 nM.
The figure for `CNC(=O)Nc1ccc2c(c1)CC[C@]21OC(=O)N(CC(=O)N2Cc3ccncc3CC[C@H]2C2CC2)C1=O` [SYY-B097-1] is 42.3 nM.
Take `CNC(=O)Nc1ccc2c(c1)CC[C@@]21OC(=O)N(CC(=O)N2Cc3ccncc3CC[C@H]2C2CC2)C1=O` [SYY-B097-2]: the IC50 amounted to 4 nM.
Regarding `CNC(=O)Nc1ccc2c(c1)CC[C@]21OC(=O)N(CC(=O)N2Cc3sccc3OC[C@H]2C2CC2)C1=O` [SYY-B100-1], the 50% inhibitory concentration (IC50) was determined as 20.6 nM.
Next, `CNC(=O)Nc1ccc2c(c1)CC[C@@]21OC(=O)N(CC(=O)N2Cc3sccc3OC[C@H]2C2CC2)C1=O` [SYY-B100-2]: 16.8 nM; `CNC(=O)Nc1ccc2c(c1)CC[C@]21OC(=O)N(CC(=O)N2Cc3ccsc3CC[C@H]2C2CC2)C1=O` [SYY-B102-1]: 13.9 nM; `CNC(=O)Nc1ccc2c(c1)CC[C@@]21OC(=O)N(CC(=O)N2Cc3ccsc3CC[C@H]2C2CC2)C1=O` [SYY-B102-2]: 0.55 nM.
The figure for `CNC(=O)Nc1ccc2c(c1)CCC21NC(=O)N(CC(=O)N2Cc3ccsc3CC[C@H]2C2CC2)C1=O` (stereo partly drawn) [SYY-B104] is less than 20 nM; for `CNC(=O)Nc1ccc2c(c1)COCC21NC(=O)N(CC(=O)N2Cc3cc(F)ccc3OC[C@H]2C2CC2)C1=O` (stereo partly drawn) [SYY-B106] it is less than 20 nM; for `CNC(=O)Nc1ccc2c(c1)CCC21NC(=O)N(CC(=O)N2Cc3sccc3OC[C@H]2C2CC2)C1=O` (stereo partly drawn) [SYY-B108] it is less than 50 nM.
Next, `Cn1cc(-c2ccc3c(c2)OCC32NC(=O)N(CC(=O)N3Cc4cc(F)ccc4OC[C@H]3C3CC3)C2=O)cn1` (stereo partly drawn) [SYY-B110]: less than 10 nM; `CNC(=O)Nc1ccc2c(c1)COCC21OC(=O)N(CC(=O)N2Cc3cc(F)ccc3OC[C@H]2C2CC2)C1=O` (stereo partly drawn) [SYY-B112]: less than 10 nM.
In the case of `CNC(=O)Nc1ccc2c(c1)CC[C@]21OC(=O)N(CC(=O)N2Cc3sc(C)c(C)c3CC[C@H]2C2CC2)C1=O` [SYY-B116-1], the IC50 was determined as 140 nM.
Turning to `CNC(=O)Nc1ccc2c(c1)CC[C@@]21OC(=O)N(CC(=O)N2Cc3sc(C)c(C)c3CC[C@H]2C2CC2)C1=O` [SYY-B116-2], the half-inhibitory concentration (IC50) was 2 nM.
Take `CNC(=O)Nc1ccc2c(c1)CC[C@@]21OC(=O)N(CC(=O)N2Cc3sc(C)c(C)c3OC[C@H]2C2CC2)C1=O` [SYY-B118-2]: the IC50 came to 6.6 nM.
As for `CNC(=O)Nc1ccc2c(c1)CCC21NC(=O)N(CC(=O)N2Cc3ccsc3OC[C@H]2C2CC2)C1=O` (stereo partly drawn) [SYY-B122], the IC50 was less than 10 nM.
On to `CNC(=O)Nc1ccc2c(c1)CCC21NC(=O)N(CC(=O)N2Cc3sccc3CC[C@H]2C2CC2)C1=O` (stereo partly drawn) [SYY-B124], for which the concentration for half-maximal inhibition (IC50) was less than 20 nM.
Turning to `CNC(=O)Nc1ccc2c(c1)CC[C@@]21OC(=O)N(CC(=O)N2Cc3sccc3CC[C@H]2C2CC2)C1=O` [SYY-B126-2], the IC50 is 0.5 nM.
`Cn1cc(-c2ccc3c(c2)S(=O)(=O)C[C@]32NC(=O)N(CC(=O)N3Cc4cc(F)ccc4OC[C@H]3C(F)(F)F)C2=O)cn1` [SYY-B130]: the concentration for half-maximal inhibition (IC50) was less than 10 nM.
As for `Cn1cc(-c2ccc3c(c2)C(F)C[C@]32NC(=O)N(CC(=O)N3Cc4cc(F)ccc4OC[C@H]3C3CC3)C2=O)cn1` (stereo partly drawn) [SYY-B132-2], the 50% inhibitory concentration (IC50) is less than 10 nM.
The figure for `CNC(=O)Nc1ccc2c(c1)CC[C@]21OC(=O)N(CC(=O)N2Cc3cnccc3CC[C@H]2C2CC2)C1=O` [SYY-B136-1] is less than 10 nM.

The record behind these values is patent publication US12172989B2, “Histone acetyltransferase (HAT) inhibitor and use thereof” (SHANGHAI INSTITUTE OF MATERIA MEDICA, CHINESE ACADEMY OF …, priority 2018, dated 2024).
